The text below walks through data of the supplement of paper PMC10307832.

Assay in all cases: relative viability (nuclei count vs DMSO), 5 days (fraction); higher = more cells survive
Compound in the test “Tanzisertib + Pemetrexed”: O[C@H]1CC[C@H](Nc2ncc3nc(Nc4c(F)cc(F)cc4F)n([C@H]4CCOC4)c3n2)CC1 [Tanzisertib] + Nc1nc2[nH]cc(CCc3ccc(C(=O)N[C@@H](CCC(=O)O)C(=O)O)cc3)c2c(=O)[nH]1 [Pemetrexed] (partner 0.2 µM)
An outline of the steps:
(§1)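 Lung cancer cell lines were seeded in 1536-well plates and dosed by pin tool the next day, with either a single drug or a fixed anchor-drug dose combined with five library-drug doses (not always all listed) spaced in √10 steps. Five days later, one step fixed the cells and stained their nuclei (final 0.05% Triton X-100, 1% formaldehyde, 1 ug/ml Hoechst), and nuclei were counted on 4× images. Relative viability is the nuclei count in treated wells divided by the count in vehicle wells, and each value is the median of duplicate plates.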

Compound in the test “Tanzisertib + Foretinib”: O[C@H]1CC[C@H](Nc2ncc3nc(Nc4c(F)cc(F)cc4F)n([C@H]4CCOC4)c3n2)CC1 [Tanzisertib] + COc1cc2c(Oc3ccc(NC(=O)C4(C(=O)Nc5ccc(F)cc5)CC4)cc3F)ccnc2cc1OCCCN1CCOCC1 [Foretinib] (partner 0.25 µM)
The procedure, abridged:
as §1

Compound in the test “Tanzisertib + Dasatinib”: O[C@H]1CC[C@H](Nc2ncc3nc(Nc4c(F)cc(F)cc4F)n([C@H]4CCOC4)c3n2)CC1 [Tanzisertib] + Cc1nc(Nc2ncc(C(=O)Nc3c(C)cccc3Cl)s2)cc(N2CCN(CCO)CC2)n1 [Dasatinib] (partner 0.075 µM)
An outline of the steps: as §1

Compound in the test “Tanzisertib + Navitoclax”: O[C@H]1CC[C@H](Nc2ncc3nc(Nc4c(F)cc(F)cc4F)n([C@H]4CCOC4)c3n2)CC1 [Tanzisertib] + CC1(C)CCC(c2ccc(Cl)cc2)=C(CN2CCN(c3ccc(C(=O)NS(=O)(=O)c4ccc(N[C@H](CCN5CCOCC5)CSc5ccccc5)c(S(=O)(=O)C(F)(F)F)c4)cc3)CC2)C1 [Navitoclax] (partner 0.5 µM)
The procedure, abridged:
as §1

As to 201T, the relative viability with Tanzisertib + Pemetrexed (first compound 0.08 µM) turned out to be 0.321; in the test with Tanzisertib + Pemetrexed (first compound 0.253 µM) it was 0.322; in the test with Tanzisertib + Pemetrexed (first compound 0.8 µM), 0.325; with Tanzisertib + Pemetrexed (first compound 2.53 µM), 0.314; with Tanzisertib + Pemetrexed (first compound 8 µM), 0.298; in the test with Tanzisertib + Foretinib (first compound 0.08 µM), 1.2. The relative viability with Tanzisertib + Foretinib (first compound 0.253 µM) was 1.08; with Tanzisertib + Foretinib (first compound 0.8 µM), 1.12; with Tanzisertib + Foretinib (first compound 2.53 µM), 1.11; with Tanzisertib + Foretinib (first compound 8 µM) it was 0.978; with Tanzisertib + Dasatinib (first compound 0.08 µM), 0.546; with Tanzisertib + Dasatinib (first compound 0.253 µM) it was 0.608. Further, the relative viability with Tanzisertib + Dasatinib (first compound 0.8 µM) was 0.537; with Tanzisertib + Dasatinib (first compound 2.53 µM), 0.496; in the test with Tanzisertib + Dasatinib (first compound 8 µM), 0.582; with Tanzisertib + Navitoclax (first compound 0.08 µM), 1.19; with Tanzisertib + Navitoclax (first compound 0.253 µM) it was 1.18; with Tanzisertib + Navitoclax (first compound 0.8 µM) it was 1.23. The relative viability in the test with Tanzisertib + Navitoclax (first compound 2.53 µM) and with Tanzisertib + Navitoclax (first compound 8 µM) was 1.18 each time.
Regarding A549, the relative viability with Tanzisertib + Foretinib (first compound 0.08 µM) stood at 0.98; with Tanzisertib + Foretinib (first compound 0.253 µM), 0.951; in the test with Tanzisertib + Foretinib (first compound 0.8 µM), 0.97; in the test with Tanzisertib + Foretinib (first compound 2.53 µM), 0.87; with Tanzisertib + Foretinib (first compound 8 µM), 0.839; in the test with Tanzisertib + Navitoclax (first compound 0.08 µM), 1.3. The relative viability is 1.08 with Tanzisertib + Navitoclax (first compound 0.253 µM), 1.26 with Tanzisertib + Navitoclax (first compound 0.8 µM), 1.1 with Tanzisertib + Navitoclax (first compound 2.53 µM) and 1.3 in the test with Tanzisertib + Navitoclax (first compound 8 µM).
As to A-427, the relative viability with Tanzisertib + Pemetrexed (first compound 0.08 µM) came out at 0.958; with Tanzisertib + Pemetrexed (first compound 0.253 µM), 0.99; with Tanzisertib + Pemetrexed (first compound 0.8 µM), 0.998; in the test with Tanzisertib + Pemetrexed (first compound 2.53 µM), 1.04; in the test with Tanzisertib + Pemetrexed (first compound 8 µM), 0.916; with Tanzisertib + Foretinib (first compound 0.08 µM), 1.18. Moreover, the relative viability with Tanzisertib + Foretinib (first compound 0.253 µM) was found to be 1.05; with Tanzisertib + Foretinib (first compound 0.8 µM), 1.02; in the test with Tanzisertib + Foretinib (first compound 2.53 µM) it was 0.939; with Tanzisertib + Foretinib (first compound 8 µM) it was 1.04; in the test with Tanzisertib + Dasatinib (first compound 0.08 µM), 0.778; with Tanzisertib + Dasatinib (first compound 0.253 µM), 0.684. For the same cell line, the relative viability with Tanzisertib + Dasatinib (first compound 0.8 µM) was 0.65; with Tanzisertib + Dasatinib (first compound 2.53 µM) it was 0.646; in the test with Tanzisertib + Dasatinib (first compound 8 µM) it was 0.808; in the test with Tanzisertib + Navitoclax (first compound 0.08 µM), 0.952; in the test with Tanzisertib + Navitoclax (first compound 0.253 µM), 0.938; in the test with Tanzisertib + Navitoclax (first compound 0.8 µM) it was 1.01. Besides, the relative viability with Tanzisertib + Navitoclax (first compound 2.53 µM) came out at 0.86; in the test with Tanzisertib + Navitoclax (first compound 8 µM) it was 0.958.
On to ABC-1, for which the relative viability in the test with Tanzisertib + Foretinib (first compound 0.08 µM) came to 0.91; with Tanzisertib + Foretinib (first compound 0.253 µM) it was 1.14; with Tanzisertib + Foretinib (first compound 0.8 µM) it was 0.909; in the test with Tanzisertib + Foretinib (first compound 2.53 µM), 0.876; in the test with Tanzisertib + Foretinib (first compound 8 µM) it was 0.706; in the test with Tanzisertib + Dasatinib (first compound 0.08 µM) it was 0.586. Also, the relative viability with Tanzisertib + Dasatinib (first compound 0.253 µM) came out at 0.604; with Tanzisertib + Dasatinib (first compound 0.8 µM) it was 0.523; with Tanzisertib + Dasatinib (first compound 2.53 µM) it was 0.614; with Tanzisertib + Dasatinib (first compound 8 µM), 0.597.
Consider BEN, for which the relative viability turned out to be 0.755 in the test with Tanzisertib + Pemetrexed (first compound 0.08 µM); 0.923 with Tanzisertib + Pemetrexed (first compound 0.253 µM); 1 with Tanzisertib + Pemetrexed (first compound 0.8 µM); 0.909 in the test with Tanzisertib + Pemetrexed (first compound 2.53 µM); 0.605 in the test with Tanzisertib + Pemetrexed (first compound 8 µM); 0.619 with Tanzisertib + Foretinib (first compound 0.08 µM). Moreover, the relative viability in the test with Tanzisertib + Foretinib (first compound 0.253 µM) turned out to be 0.75; with Tanzisertib + Foretinib (first compound 0.8 µM) it was 0.679; with Tanzisertib + Foretinib (first compound 2.53 µM), 0.766; with Tanzisertib + Foretinib (first compound 8 µM), 0.828; with Tanzisertib + Dasatinib (first compound 0.08 µM), 0.306; with Tanzisertib + Dasatinib (first compound 0.253 µM), 0.374. Besides, the relative viability was determined as 0.442 with Tanzisertib + Dasatinib (first compound 0.8 µM); 0.355 with Tanzisertib + Dasatinib (first compound 2.53 µM); 0.32 in the test with Tanzisertib + Dasatinib (first compound 8 µM); 0.0685 in the test with Tanzisertib + Navitoclax (first compound 0.08 µM); 0.0675 in the test with Tanzisertib + Navitoclax (first compound 0.253 µM); 0.0797 in the test with Tanzisertib + Navitoclax (first compound 0.8 µM). Moreover, the relative viability with Tanzisertib + Navitoclax (first compound 2.53 µM) was 0.072; in the test with Tanzisertib + Navitoclax (first compound 8 µM), 0.0632.
On to CAL-12T, for which the relative viability with Tanzisertib + Pemetrexed (first compound 0.08 µM) worked out at 1.06; with Tanzisertib + Pemetrexed (first compound 0.253 µM), 1.24; with Tanzisertib + Pemetrexed (first compound 0.8 µM), 1.12; in the test with Tanzisertib + Pemetrexed (first compound 2.53 µM), 1.21; with Tanzisertib + Pemetrexed (first compound 8 µM) it was 1.18; in the test with Tanzisertib + Foretinib (first compound 0.08 µM), 1.11. Moreover, the relative viability worked out at 1.13 with Tanzisertib + Foretinib (first compound 0.253 µM); 1.05 with Tanzisertib + Foretinib (first compound 0.8 µM); 1.25 in the test with Tanzisertib + Foretinib (first compound 2.53 µM); 1.07 in the test with Tanzisertib + Foretinib (first compound 8 µM); 0.453 with Tanzisertib + Dasatinib (first compound 0.08 µM); 0.343 with Tanzisertib + Dasatinib (first compound 0.253 µM). Further, the relative viability with Tanzisertib + Dasatinib (first compound 0.8 µM) turned out to be 0.375; in the test with Tanzisertib + Dasatinib (first compound 2.53 µM), 0.314; with Tanzisertib + Dasatinib (first compound 8 µM), 0.319; with Tanzisertib + Navitoclax (first compound 0.08 µM) it was 1.21; with Tanzisertib + Navitoclax (first compound 0.253 µM) it was 1.18; with Tanzisertib + Navitoclax (first compound 0.8 µM), 1.37. The relative viability came out at 1.37 with Tanzisertib + Navitoclax (first compound 2.53 µM) and 1.34 in the test with Tanzisertib + Navitoclax (first compound 8 µM).
With COR-L23, the relative viability was determined as 0.2 in the test with Tanzisertib + Pemetrexed (first compound 0.08 µM); 0.209 with Tanzisertib + Pemetrexed (first compound 0.253 µM); 0.188 with Tanzisertib + Pemetrexed (first compound 0.8 µM); 0.201 with Tanzisertib + Pemetrexed (first compound 2.53 µM); 0.191 in the test with Tanzisertib + Pemetrexed (first compound 8 µM); 1.01 with Tanzisertib + Foretinib (first compound 0.08 µM). Besides, the relative viability in the test with Tanzisertib + Foretinib (first compound 0.253 µM) stood at 0.966; with Tanzisertib + Foretinib (first compound 0.8 µM), 1; in the test with Tanzisertib + Foretinib (first compound 2.53 µM), 1.13; with Tanzisertib + Foretinib (first compound 8 µM), 1; in the test with Tanzisertib + Dasatinib (first compound 0.08 µM) it was 0.527; in the test with Tanzisertib + Dasatinib (first compound 0.253 µM), 0.473. Further, the relative viability in the test with Tanzisertib + Dasatinib (first compound 0.8 µM) was determined as 0.491; in the test with Tanzisertib + Dasatinib (first compound 2.53 µM), 0.494; with Tanzisertib + Dasatinib (first compound 8 µM), 0.396; with Tanzisertib + Navitoclax (first compound 0.08 µM) it was 1.15; with Tanzisertib + Navitoclax (first compound 0.253 µM), 1.05; with Tanzisertib + Navitoclax (first compound 0.8 µM) it was 0.979. For the same cell line, the results for the relative viability in the test with Tanzisertib + Navitoclax (first compound 2.53 µM) and with Tanzisertib + Navitoclax (first compound 8 µM) were 1.24 and 1.03, respectively.
With COR-L 105, the relative viability with Tanzisertib + Pemetrexed (first compound 0.08 µM) amounted to 1.4; with Tanzisertib + Pemetrexed (first compound 0.253 µM), 1.12; with Tanzisertib + Pemetrexed (first compound 0.8 µM), 1.14; with Tanzisertib + Pemetrexed (first compound 2.53 µM), 1.28; with Tanzisertib + Pemetrexed (first compound 8 µM), 0.884; with Tanzisertib + Foretinib (first compound 0.08 µM) it was 0.99. For the same cell line, the relative viability in the test with Tanzisertib + Foretinib (first compound 0.253 µM) is 1.03; in the test with Tanzisertib + Foretinib (first compound 0.8 µM), 1.32; with Tanzisertib + Foretinib (first compound 2.53 µM), 1.27; with Tanzisertib + Foretinib (first compound 8 µM), 0.719; with Tanzisertib + Dasatinib (first compound 0.08 µM), 0.397; with Tanzisertib + Dasatinib (first compound 0.253 µM), 0.356. Moreover, the relative viability turned out to be 0.297 in the test with Tanzisertib + Dasatinib (first compound 0.8 µM); 0.354 with Tanzisertib + Dasatinib (first compound 2.53 µM); 0.255 with Tanzisertib + Dasatinib (first compound 8 µM); 0.88 in the test with Tanzisertib + Navitoclax (first compound 0.08 µM); 0.789 in the test with Tanzisertib + Navitoclax (first compound 0.253 µM); 0.728 in the test with Tanzisertib + Navitoclax (first compound 0.8 µM). Also, the values for the relative viability in the test with Tanzisertib + Navitoclax (first compound 2.53 µM) and with Tanzisertib + Navitoclax (first compound 8 µM) were 0.819 and 0.683, respectively.
With Calu-6, the relative viability came to 0.955 in the test with Tanzisertib + Foretinib (first compound 0.08 µM); 0.951 with Tanzisertib + Foretinib (first compound 0.253 µM); 0.799 with Tanzisertib + Foretinib (first compound 0.8 µM); 0.841 with Tanzisertib + Foretinib (first compound 2.53 µM); 0.789 with Tanzisertib + Foretinib (first compound 8 µM); 0.872 with Tanzisertib + Navitoclax (first compound 0.08 µM). The relative viability is 0.835 with Tanzisertib + Navitoclax (first compound 0.253 µM), 0.9 with Tanzisertib + Navitoclax (first compound 0.8 µM), 0.848 in the test with Tanzisertib + Navitoclax (first compound 2.53 µM) and 0.994 with Tanzisertib + Navitoclax (first compound 8 µM).
